The source of these data is patent US20230117034A1, “PYRAZOLOTRIAZINES” (Bayer Aktiengesellschaft, priority 2019, published 2023).

pIC50: −log10 of the molar value.

One assay concerns the target CDK12/CycK (Homo sapiens, UniProt Q9NYV4). The experiment in a line: CDK12/CycK high ATP kinase assay (TR-FRET, 2 mM ATP). Format: biochemical. To be noted: 2 mM ATP (high ATP); median; read-out: CDK12/CyclinK, 2 mM ATP (high ATP), IC50-[mol/l] (median). Summed up:
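Read-out is TR-FRET (Eu-anti-rabbit IgG, anti-phospho-c-Myc Ser62 antibody, streptavidin-XL665) after EDTA stop. Reaction ran 60 min at 22 °C using 1 µM biotin-peptide and high ATP (2 mM) with roughly 0.75 nM recombinant CDK12/CycK, after 15 min compound pre-binding; normalised emission ratios yield IC50.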
(TR-FRET usually uses a lanthanide donor and a delayed reading to cut background.)

In assay [1] the test system is CAL-120, human breast adenocarcinoma cells. Nature of the assay: Proliferation assay CAL-120 (crystal violet, 4 days). Format: cell-based. To be noted: Homo sapiens, CAL-120, 96 h, CAL-120 cells, median, read-out: Prolif-CAL-120, IC50-[mol/l] (median). Summed up:
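IC50 from a 4-parameter fit of crystal violet absorbance (595 nm), scaled between the day-of-dosing plate (0%) and vehicle cells (100%). MDA-MB-231 or CAL-120 cells were treated for 4 days with 0.01–10 micromol/L compound in 0.1% DMSO after 24 h attachment.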

Sequence of CDK12/CycK (Q9NYV4 with tags, fused parts or gaps): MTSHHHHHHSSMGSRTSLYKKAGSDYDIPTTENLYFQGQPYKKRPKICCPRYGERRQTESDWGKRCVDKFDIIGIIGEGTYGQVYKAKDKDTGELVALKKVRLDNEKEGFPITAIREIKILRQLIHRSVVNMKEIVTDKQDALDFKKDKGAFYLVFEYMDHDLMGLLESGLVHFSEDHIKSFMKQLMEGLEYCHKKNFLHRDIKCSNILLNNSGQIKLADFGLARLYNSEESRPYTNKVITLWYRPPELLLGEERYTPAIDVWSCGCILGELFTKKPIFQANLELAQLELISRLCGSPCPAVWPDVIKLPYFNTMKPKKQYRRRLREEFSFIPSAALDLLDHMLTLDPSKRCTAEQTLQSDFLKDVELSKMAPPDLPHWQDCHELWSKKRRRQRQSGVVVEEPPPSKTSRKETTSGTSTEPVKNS
Sequence of CDK12/CycK (O75909 1-300 partner limits assumed): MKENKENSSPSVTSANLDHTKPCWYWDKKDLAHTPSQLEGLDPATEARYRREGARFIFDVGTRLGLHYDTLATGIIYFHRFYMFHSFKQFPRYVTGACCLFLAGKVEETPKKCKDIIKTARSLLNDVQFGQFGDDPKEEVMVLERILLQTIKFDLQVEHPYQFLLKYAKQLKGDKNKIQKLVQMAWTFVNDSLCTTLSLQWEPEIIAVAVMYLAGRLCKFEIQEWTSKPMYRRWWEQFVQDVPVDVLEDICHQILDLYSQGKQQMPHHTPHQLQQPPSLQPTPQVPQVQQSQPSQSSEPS

Turning to `Cc1cnn2c(NCc3nc4ccccc4[nH]3)nc(N3CCOCC3)nc12` [Example 393, N-[(1H-benzimidazol-2-yl)methyl]-8-methyl-2-(morpholin-4-yl)pyrazolo[1,5-a][1,3,5]triazin-4-amine], the figures for the pIC50 (at CDK12/CycK; in assay [1]) were < 4.70 and 7.33, respectively.
The like results for `Fc1cccc(-c2nnc(CNc3nc(N4CCOCC4)nc4c(Br)cnn34)[nH]2)c1` [Example 44, 8-bromo-N-{[5-(3-fluorophenyl)-4H-1,2,4-triazol-3-yl]methyl}-2-(morpholin-4-yl)pyrazolo[1,5-a][1,3,5]triazin-4-amine] were, in that order, 5.87 and 8.84.
`OC[C@H]1CCCCN1c1nc(NCc2nc3ccccc3[nH]2)n2ncc(Br)c2n1` [Example 60, [(2R)-1-(4-{[(1H-benzimidazol-2-yl)methyl]amino}-8-bromopyrazolo[1,5-a][1,3,5]triazin-2-yl)piperidin-2-yl]methanol]: the figures for the pIC50 (at CDK12/CycK; in assay [1]) were 5.73 and 7.59, respectively.
The corresponding values for `CN1CCN(c2nc(NCc3nc4c(F)c(F)ccc4[nH]3)n3ncc(C4CC4(F)F)c3n2)CC1` (stereo not shown) [Example 429, N-[(4,5-difluoro-1H-benzimidazol-2-yl)methyl]-8-(2,2-difluorocyclopropyl)-2-(4-methylpiperazin-1-yl)pyrazolo[1,5-a][1,3,5]triazin-4-amine] are < 4.70 and 8.05.
The corresponding values for `Brc1cnn2c(NCc3nc4ccccc4[nH]3)nc(OCCN3CCCC3)nc12` [Example 404, N-[(1H-benzimidazol-2-yl)methyl]-8-bromo-2-[2-(pyrrolidin-1-yl)ethoxy]pyrazolo[1,5-a][1,3,5]triazin-4-amine] are < 4.70 and 6.72.
Take `Cc1cnn2c(NCc3nc4c(F)c(F)ccc4[nH]3)nc(N3CCN(C)CC3)nc12` [Example 394, N-[(4,5-difluoro-1H-benzimidazol-2-yl)methyl]-8-methyl-2-(4-methylpiperazin-1-yl)pyrazolo[1,5-a][1,3,5]triazin-4-amine]: the values for the pIC50 (at CDK12/CycK; in assay [1]) were < 4.73 and 8.36, respectively.
In the case of `Fc1ccc2[nH]c(CNc3nc(N4CCOCC4)nc4c(CC(F)F)cnn34)nc2c1F.O=C(O)C(F)(F)F` [Example 425, trifluoroacetic acid N-[(4,5-difluoro-1H-benzimidazol-2-yl)methyl]-8-(2,2-difluoroethyl)-2-(morpholin-4-yl)pyrazolo[1,5-a][1,3,5]triazin-4-amine], the results for the pIC50 (on CDK12/CycK; in assay [1]) were 5.67 and 8.51, respectively.
For `Clc1cc2nc(CNc3nc(N4CCOCC4)nc4c(-c5ccnnc5)cnn34)[nH]c2cc1Cl.O=C(O)C(F)(F)F` [Example 440, trifluoroacetic acid N-[(5,6-dichloro-1H-benzimidazol-2-yl)methyl]-2-(morpholin-4-yl)-8-(pyridazin-4-yl)pyrazolo[1,5-a][1,3,5]triazin-4-amine], the pIC50 was < 4.70 on CDK12/CycK and 8.13 in assay [1].
`Cc1cnn2c(NCc3nc4ccccc4[nH]3)nc(N3CCN(C)CC3)nc12` [Example 396, N-[(1H-benzimidazol-2-yl)methyl]-8-methyl-2-(4-methylpiperazin-1-yl)pyrazolo[1,5-a][1,3,5]triazin-4-amine]: the results for the pIC50 (at CDK12/CycK; in assay [1]) were < 4.70 and 7.26, respectively.
On to `FC(F)(F)c1cnn2c(NCc3nnc(-c4ccccc4)[nH]3)nc(N3CCOCC3)nc12` [Example 427, 2-(morpholin-4-yl)-N-[(5-phenyl-4H-1,2,4-triazol-3-yl)methyl]-8-(trifluoromethyl)pyrazolo[1,5-a][1,3,5]triazin-4-amine], for which the pIC50 was 5.73 on CDK12/CycK and 7.36 in assay [1].
The corresponding values for `CN1CCN(c2nc(NCc3nc4cc(Cl)c(Cl)cc4[nH]3)n3ncc(-c4cnn(C)c4)c3n2)CC1` [Example 420, N-[(5,6-dichloro-1H-benzimidazol-2-yl)methyl]-2-(4-methylpiperazin-1-yl)-8-(1-methyl-1H-pyrazol-4-yl)pyrazolo[1,5-a][1,3,5]triazin-4-amine] are < 4.70 and 6.68.
The corresponding values for `Fc1ccc2[nH]c(CNc3nc(N4CCOCC4)nc4c(-c5ccnnc5)cnn34)nc2c1F` [Example 417, N-[(4,5-difluoro-1H-benzimidazol-2-yl)methyl]-2-(morpholin-4-yl)-8-(pyridazin-4-yl)pyrazolo[1,5-a][1,3,5]triazin-4-amine] are < 5.11 and 8.04.
Regarding `CN(CC(C)(C)O)c1nc(NCc2nc3c(F)c(F)ccc3[nH]2)n2ncc(C(F)(F)F)c2n1` [Example 402, 1-{[4-{[(4,5-difluoro-1H-benzimidazol-2-yl)methyl]amino}-8-(trifluoromethyl)pyrazolo[1,5-a][1,3,5]triazin-2-yl](methyl)amino}-2-methylpropan-2-ol], the pIC50 at CDK12/CycK is 6.65; in assay [1], 8.11.
The like results for `Fc1ccc2[nH]c(CNc3nc(N4CCOCC4)nc4c(-c5nccs5)cnn34)nc2c1F` [Example 413, N-[(4,5-difluoro-1H-benzimidazol-2-yl)methyl]-2-(morpholin-4-yl)-8-(1,3-thiazol-2-yl)pyrazolo [1,5-a][1,3,5]triazin-4-amine] were, in that order, < 4.70 and 7.16.
The like results for `CN(C)CCOc1nc(NCc2nc3ccccc3[nH]2)n2ncc(Br)c2n1` [Example 399, N-[(1H-benzimidazol-2-yl)methyl]-8-bromo-2-[2-(dimethylamino)ethoxy]pyrazolo[1,5-a][1,3,5]triazin-4-amine] were, in that order, < 4.70 and 7.08.
For `Brc1cnn2c(NCc3nc4ccccc4[nH]3)nc(N3CC4(COC4)C3)nc12` [Example 48, N-[(1H-benzimidazol-2-yl)methyl]-8-bromo-2-(2-oxa-6-azaspiro[3.3]heptan-6-yl)pyrazolo[1,5-a][1,3,5]triazin-4-amine], the pIC50 was < 5.24 on CDK12/CycK and 6.92 in assay [1].
The like results for `COc1ccccc1-c1nnc(CNc2nc(N3CCOCC3)nc3c(Br)cnn23)[nH]1` [Example 61, 8-bromo-N-{[5-(2-methoxyphenyl)-4H-1,2,4-triazol-3-yl]methyl}-2-(morpholin-4-yl)pyrazolo[1,5-a][1,3,5]triazin-4-amine] were, in that order, < 4.70 and 7.61.
The like results for `Cc1cnn2c(NCc3nc4ccccc4[nH]3)nc(N3CC4CCC(C3)N4)nc12` [Example 401, N-[(1H-benzimidazol-2-yl)methyl]-2-(3,8-diazabicyclo[3.2.1]octan-3-yl)-8-methylpyrazolo[1,5-a][1,3,5]triazin-4-amine] were, in that order, < 4.70 and 7.36.
As for `COc1cccc2nc(CNc3nc(N4CCOCC4)nc4c(-c5ccnnc5)cnn34)[nH]c12.O=C(O)C(F)(F)F` [Example 439, trifluoroacetic acid N-[(7-methoxy-1H-benzimidazol-2-yl)methyl]-2-(morpholin-4-yl)-8-(pyridazin-4-yl)pyrazolo[1,5-a][1,3,5]triazin-4-amine], the pIC50 was 5.40 at CDK12/CycK and 7.44 in assay [1].
The like results for `CCc1cnn2c(NCc3nc4ccccc4[nH]3)nc(N3CCOCC3)nc12` [Example 431, N-[(1H-benzimidazol-2-yl)methyl]-8-ethyl-2-(morpholin-4-yl)pyrazolo[1,5-a][1,3,5]triazin-4-amine] were, in that order, 5.55 and 8.15.
The like results for `Cn1cc(-c2cnn3c(NCc4nc5cc(Cl)c(Cl)cc5[nH]4)nc(N4CCOCC4)nc23)cn1` [Example 419, N-[(5,6-dichloro-1H-benzimidazol-2-yl)methyl]-8-(1-methyl-1H-pyrazol-4-yl)-2-(morpholin-4-yl)pyrazolo[1,5-a][1,3,5]triazin-4-amine] were, in that order, < 4.70 and 7.10.
The corresponding values for `COc1cccc2nc(CNc3nc(N4CCN(C)CC4)nc4c(-c5nccs5)cnn34)[nH]c12` [Example 416, N-[(7-methoxy-1H-benzimidazol-2-yl)methyl]-2-(4-methylpiperazin-1-yl)-8-(1,3-thiazol-2-yl)pyrazolo[1,5-a][1,3,5]triazin-4-amine] are < 4.70 and 6.45.
As to `Brc1cnn2c(NCc3nnc(-c4ccccn4)[nH]3)nc(N3CCOCC3)nc12` [Example 54, 8-bromo-2-(morpholin-4-yl)-N-{[5-(pyridin-2-yl)-4H-1,2,4-triazol-3-yl]methyl}pyrazolo[1,5-a][1,3,5]triazin-4-amine], the pIC50 is 5.25 on CDK12/CycK and 7.27 in assay [1].
For `N#Cc1cccc(-c2nnc(CNc3nc(N4CCOCC4)nc4c(Br)cnn34)[nH]2)c1` [Example 55, 3-[5-({[8-bromo-2-(morpholin-4-yl)pyrazolo[1,5-a][1,3,5]triazin-4-yl]amino}methyl)-4H-1,2,4-triazol-3-yl]benzonitrile], the values for the pIC50 (at CDK12/CycK; in assay [1]) were 6.11 and 8.20, respectively.
The like results for `NCCOCCOCCNc1nc(NCc2nc3ccccc3[nH]2)n2ncc(Br)c2n1` [Example 412, N2-{2-[2-(2-aminoethoxy)ethoxy]ethyl}-N4-[(1H-benzimidazol-2-yl)methyl]-8-bromopyrazolo[1,5-a][1,3,5]triazine-2,4-diamine] were, in that order, < 5.24 and 5.95.
The like results for `CN1CCN(c2nc(NCc3nc4c(F)c(F)ccc4[nH]3)n3ncc(CC(F)(F)F)c3n2)CC1` [Example 437, N-[(4,5-difluoro-1H-benzimidazol-2-yl)methyl]-2-(4-methylpiperazin-1-yl)-8-(2,2,2-trifluoroethyl) pyrazolo[1,5-a][1,3,5]triazin-4-amine] were, in that order, < 4.70 and 7.96.
